Assays:
Type in all cases: in vivo
[1] = test system: DIGSA: large crabgrass (Digitaria sanguinalis); experiment: Post-emergent herbicidal test, large crabgrass; conditions: post-emergence, 336 h, 14 days after application, read-out: Visual Growth Reduction (%) 14 Days After Application DIGSA
Method in brief: (§1)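 Visual injury rating, 0 (none) to 100% (complete kill), made 14 d after treatment relative to untreated plants. Foliar track-sprayer application at 187 L/ha to plants at the 1st-2nd true leaf stage; rates were twofold serial dilutions from the highest rate down to 1/16×.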

[2] = test system: ABUTH: velvetleaf (Abutilon theophrasti); experiment: Post-emergent herbicidal test, velvetleaf; conditions: post-emergence, 336 h, 14 days after application, read-out: Visual Growth Reduction (%) 14 Days After Application ABUTH
Method in brief: as §1

[3] = test system: CIRAR: Canada thistle (Cirsium arvense); experiment: Post-emergent herbicidal test, Canada thistle; conditions: post-emergence, 336 h, 14 days after application, read-out: Visual Growth Reduction (%) 14 Days After Application CIRAR
Method in brief: as §1

[4] = test system: VIOTR: wild violet (Viola tricolor); experiment: Post-emergent herbicidal test, wild violet; conditions: post-emergence, 336 h, 14 days after application, read-out: Visual Growth Reduction (%) 14 Days After Application VIOTR
Method in brief: as §1

[5] = test system: BRSNN: oilseed rape, canola (Brassica napus); experiment: Post-emergent herbicidal test, oilseed rape; conditions: post-emergence, 336 h, 14 days after application, read-out: Visual Growth Reduction (%) 14 Days After Application BRSNN
Method in brief: as §1

[6] = test system: SETFA: giant foxtail (Setaria faberi); experiment: Post-emergent herbicidal test, giant foxtail; conditions: post-emergence, 336 h, 14 days after application, read-out: Visual Growth Reduction (%) 14 Days After Application SETFA
Method in brief: as §1

[7] = test system: SORVU: shattercane (Sorghum bicolor); experiment: Post-emergent herbicidal test, shattercane; conditions: post-emergence, 336 h, 14 days after application, read-out: Visual Growth Reduction (%) 14 Days After Application SORVU
Method in brief: as §1

[8] = test system: CYPES: yellow nutsedge (Cyperus esculentus); experiment: Post-emergent herbicidal test, yellow nutsedge; conditions: post-emergence, 336 h, 14 days after application, read-out: Visual Growth Reduction (%) 14 Days After Application CYPES
Method in brief: as §1

[9] = test system: IPOHE: ivyleaf morningglory (Ipomoea hederacea); experiment: Post-emergent herbicidal test, ivyleaf morningglory; conditions: post-emergence, 336 h, 14 days after application, read-out: Visual Growth Reduction (%) 14 Days After Application IPOHE
Method in brief: as §1

[10] = test system: EPHHL: wild poinsettia (Euphorbia heterophylla); experiment: Post-emergent herbicidal test, wild poinsettia; conditions: post-emergence, 336 h, 14 days after application, read-out: Visual Growth Reduction (%) 14 Days After Application EPHHL
Method in brief: as §1

[11] = test system: ECHCG: barnyardgrass (Echinochloa crus-galli); experiment: Post-emergent herbicidal test, barnyardgrass; conditions: post-emergence, 336 h, 14 days after application, read-out: Visual Growth Reduction (%) 14 Days After Application ECHCG
Method in brief: as §1

COC(=O)c1nc(-c2ccc(Br)c3c2OC(F)(F)O3)c(F)c(N)c1Cl [Compound 9]
pest or weed control at 17.5 g/ha ([1]; 17.5 g ai/ha): 0%
pest or weed control at 35 g/ha ([1]; 35 g ai/ha): 0%
pest or weed control at 70 g/ha ([1]; 70 g ai/ha): 0%
pest or weed control at 140 g/ha ([1]; 140 g ai/ha): 0%
pest or weed control at 17.5 g/ha ([2]; 17.5 g ai/ha): 80%
pest or weed control at 35 g/ha ([2]; 35 g ai/ha): 85%
pest or weed control at 70 g/ha ([2]; 70 g ai/ha): 85%
pest or weed control at 140 g/ha ([2]; 140 g ai/ha): 85%
pest or weed control at 17.5 g/ha ([3]; 17.5 g ai/ha): 70%
pest or weed control at 35 g/ha ([3]; 35 g ai/ha): 80%
pest or weed control at 70 g/ha ([3]; 70 g ai/ha): 85%
pest or weed control at 140 g/ha ([3]; 140 g ai/ha): 85%
pest or weed control at 17.5 g/ha ([4]; 17.5 g ai/ha): 0%
pest or weed control at 35 g/ha ([4]; 35 g ai/ha): 0%
pest or weed control at 70 g/ha ([4]; 70 g ai/ha): 20%
pest or weed control at 140 g/ha ([4]; 140 g ai/ha): 20%
pest or weed control at 17.5 g/ha ([5]; 17.5 g ai/ha): 60%
pest or weed control at 35 g/ha ([5]; 35 g ai/ha): 60%
pest or weed control at 70 g/ha ([5]; 70 g ai/ha): 75%
pest or weed control at 140 g/ha ([5]; 140 g ai/ha): 75%
pest or weed control at 17.5 g/ha ([6]; 17.5 g ai/ha): 0%
pest or weed control at 35 g/ha ([6]; 35 g ai/ha): 0%
pest or weed control at 70 g/ha ([6]; 70 g ai/ha): 0%
pest or weed control at 140 g/ha ([6]; 140 g ai/ha): 0%
pest or weed control at 17.5 g/ha ([7]; 17.5 g ai/ha): 0%
pest or weed control at 35 g/ha ([7]; 35 g ai/ha): 0%
pest or weed control at 70 g/ha ([7]; 70 g ai/ha): 10%
pest or weed control at 140 g/ha ([7]; 140 g ai/ha): 10%
pest or weed control at 17.5 g/ha ([8]; 17.5 g ai/ha): 0%
pest or weed control at 35 g/ha ([8]; 35 g ai/ha): 0%
pest or weed control at 70 g/ha ([8]; 70 g ai/ha): 0%
pest or weed control at 140 g/ha ([8]; 140 g ai/ha): 0%
pest or weed control at 17.5 g/ha ([9]; 17.5 g ai/ha): 0%
pest or weed control at 35 g/ha ([9]; 35 g ai/ha): 0%
pest or weed control at 70 g/ha ([9]; 70 g ai/ha): 0%
pest or weed control at 140 g/ha ([9]; 140 g ai/ha): 0%
pest or weed control at 17.5 g/ha ([10]; 17.5 g ai/ha): 0%
pest or weed control at 35 g/ha ([10]; 35 g ai/ha): 0%
pest or weed control at 70 g/ha ([10]; 70 g ai/ha): 0%
pest or weed control at 140 g/ha ([10]; 140 g ai/ha): 0%
pest or weed control at 17.5 g/ha ([11]; 17.5 g ai/ha): 0%
pest or weed control at 35 g/ha ([11]; 35 g ai/ha): 0%
pest or weed control at 70 g/ha ([11]; 70 g ai/ha): 0%
pest or weed control at 140 g/ha ([11]; 140 g ai/ha): 0%

From patent US11718604B2, “4-amino-6-(1,3-benzodioxole)picolinates and their use as herbicides” (Dow AgroSciences LLC, priority 2018, dated 2023)
